Drawing on patent US6407094B1, “Glutamate receptor antagonists” (Hoffmann-la Roche Inc., priority 1999, dated 2002), this text covers Ki and melting point for 17 compounds.

Bounds are passed on as bounds.

One data set deals with T1, rat mGlu2 receptor (Rattus norvegicus, UniProt P31421).
T1 construct: expressed in transfected cells; host or cells: CHO cells, stably transfected with pcD1mGR2 (pcDNA I-amp), G-418 selected; membranes used
Description: [3H]-LY354740 binding on mGlu2 transfected CHO cell membranes.

T1 sequence (P31421 19-872): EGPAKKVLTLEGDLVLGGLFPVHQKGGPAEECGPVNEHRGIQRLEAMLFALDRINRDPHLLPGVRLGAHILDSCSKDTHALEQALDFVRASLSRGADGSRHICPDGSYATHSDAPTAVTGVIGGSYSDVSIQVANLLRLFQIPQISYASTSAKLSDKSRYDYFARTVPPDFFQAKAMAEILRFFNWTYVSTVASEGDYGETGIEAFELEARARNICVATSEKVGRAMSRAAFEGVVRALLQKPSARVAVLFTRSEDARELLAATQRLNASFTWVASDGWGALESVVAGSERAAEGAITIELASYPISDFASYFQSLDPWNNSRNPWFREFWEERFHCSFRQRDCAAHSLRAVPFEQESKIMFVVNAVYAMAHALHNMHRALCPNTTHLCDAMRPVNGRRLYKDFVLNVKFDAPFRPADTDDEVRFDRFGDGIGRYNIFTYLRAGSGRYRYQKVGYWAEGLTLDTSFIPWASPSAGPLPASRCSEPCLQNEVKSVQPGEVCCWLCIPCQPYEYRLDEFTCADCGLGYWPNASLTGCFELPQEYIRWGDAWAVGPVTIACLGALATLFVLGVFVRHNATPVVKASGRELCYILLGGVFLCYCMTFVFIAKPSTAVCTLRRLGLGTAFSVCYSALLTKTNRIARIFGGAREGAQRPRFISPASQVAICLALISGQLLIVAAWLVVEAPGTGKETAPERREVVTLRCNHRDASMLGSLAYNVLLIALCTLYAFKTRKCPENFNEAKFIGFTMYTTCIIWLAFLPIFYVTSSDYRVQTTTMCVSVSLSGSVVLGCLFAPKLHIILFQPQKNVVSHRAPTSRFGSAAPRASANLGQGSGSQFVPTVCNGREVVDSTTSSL

Regarding `COCCOc1cc2c(cc1C#Cc1ccccc1)NC(=O)CC(c1cccc(I)c1)=N2` [Example 25], the melting point was 192 °C (dec.). On rat mGlu2 receptor, this compound yielded an inhibition constant Ki of 21 nM.

The compound `COCCOc1cc2c(cc1C#Cc1ccccc1)NC(=O)CC(c1cccc(-n3ccnc3)c1)=N2` [Example 27, 4-(3-Imidazol-1-yl-phenyl)-7-(2-methoxy-ethoxy)-8-phenylethynyl-1,3-dihydro-benzo[b][1,4]diazepin-2-one] had a melting point of 187 to 189 °C. This compound also returned an inhibition constant (Ki) on rat mGlu2 receptor of 12 nM.

Compound `O=C1CC(c2cccc(-n3ccnc3)c2)=Nc2cc(CO)c(C#Cc3ccccc3)cc2N1` [Example 32, 7-Hydroxymethyl-4-(3-imidazol-1-yl-phenyl)-8-phenylethynyl-1,3-dihydro-benzo[b][1,4]diazepin-2-one] returned a melting point of 227 °C. The Ki at rat mGlu2 receptor is 18 nM.

As to `O=C1CC(c2cccc(-n3ccnc3)c2)=Nc2cc(CO)c(C#Cc3ccc(F)cc3)cc2N1` [Example 37, 8-(4-Fluoro-phenylethynyl)-7-hydroxymethyl-4-(3-imidazol-1-yl-phenyl)-1,3-dihydro-benzo[b][1,4]diazepin-2-one], the melting point is 234 °C (dec.). Moreover, the inhibition constant (Ki) on rat mGlu2 receptor was found to be 9 nM.

Compound `O=C1CC(c2cccc(-n3ccnc3)c2)=Nc2cc(OCCO)c(C#Cc3ccccc3)cc2N1` [Example 42, 7-(2-Hydroxy-ethoxy)-4-(3-imidazol-1-yl-phenyl)-8-phenylethynyl-1,3-dihydro-benzo[b][1,4]diazepin-2-one] came in with a melting point of 224 to 227 °C. For the same compound, the affinity at rat mGlu2 receptor corresponds to a Ki of 32 nM.

Turning to `O=C1CC(c2cccc(-n3ccnc3)c2)=Nc2cc(N3CCC(OCCO)CC3)c(-c3ccc(F)cc3)cc2N1` [Example 45, 8-(4-Fluoro-phenyl)-7-[4-(2-hydroxy-ethoxy)-piperidin-1-yl]-4-(3-imidazol-1-yl-phenyl)-1,3-dihydro-benzo[b][1,4]diazepin-2-one], the melting point is 225 to 227 °C. In addition, the affinity on rat mGlu2 receptor, expressed as Ki, was 100 nM.

With `O=C1CC(c2cccc(-n3ccnc3)c2)=Nc2cc(O)c(-c3ccc(F)cc3)cc2N1` [Example 61, 8-(4-Fluoro-phenyl)-7-hydroxy-4-(3-imidazol-1-yl-phenyl)-1,3-dihydro-benzo[b][1,4]diazepin-2-one], the melting point was 250 °C. In addition, the affinity on rat mGlu2 receptor, expressed as Ki, was 7 nM.

In the case of `COc1cc2c(cc1-c1ccccc1F)NC(=O)CC(c1cccc(-n3ccnc3C)c1)=N2` [Example 68, 8-(2-Fluoro-phenyl)-7-methoxy-4-[3-(2-methyl-imidazol-1-yl)-phenyl]-1,3-dihydro-benzo[b][1,4]diazepin-2-one], the melting point fell in the range of 220 to 222 °C. The compound also gave an inhibition constant (Ki) at rat mGlu2 receptor of 138 nM.

Compound `COc1cc2c(cc1-c1ccccc1F)NC(=O)CC(c1ccc(C#N)s1)=N2` [Example 69] yielded a melting point above 250 °C. This compound displayed a Ki on rat mGlu2 receptor of 168 nM.

Turning to `COc1cc2c(cc1-c1ccccc1F)NC(=O)CC(c1ccnc(C#N)c1)=N2` [Example 71, 4-[7-(2-Fluoro-phenyl)-8-methoxy-4-oxo-4,5-dihydro-3H-benzo[b][1,4]diazepin-2-yl)-pyridine-2-carbonitrile], the melting point was in the range of 240 to 242 °C. On rat mGlu2 receptor, the affinity, expressed as Ki, was 33 nM.

As for `O=C1CC(c2cccc(-n3ccnn3)c2)=Nc2cc(O)c(-c3ccccc3F)cc2N1` [Example 75, 8-(2-Fluoro-phenyl)-7-hydroxy-4-(3-[1,2,3]triazol-1-yl-phenyl)-1,3-dihydro-benzo[b][1,4]diazepin-2-one], the melting point is above 250 °C. At rat mGlu2 receptor, this compound registered a Ki of 28 nM.

Compound `Cc1nccn1-c1cccc(C2=Nc3cc(O)c(-c4ccccc4F)cc3NC(=O)C2)c1` [Example 79, 8-(2-Fluoro-phenyl)-7-hydroxy-4-[3-(2-methyl-imidazol-1-yl)-phenyl]-1,3-dihydro-benzo[b][1,4]diazepin-2-one] returned a melting point above 250 °C. Further, the affinity on rat mGlu2 receptor, expressed as Ki, was 108 nM.

Regarding `CSc1nccn1-c1cccc(C2=Nc3cc(O)c(-c4ccccc4F)cc3NC(=O)C2)c1` [Example 81, 8-(2-Fluoro-phenyl)-7-hydroxy-4-[3-(2-methylsulfanyl-imidazol-1-yl)-phenyl]-1,3-dihydro-benzo[b][1,4]diazepin-2-one], the melting point is above 250 °C. The compound further came in with a Ki at rat mGlu2 receptor of 21 nM.

Consider `COc1cc2c(cc1-c1cc(F)ccc1F)NC(=O)CC(c1cccc(-n3ccnn3)c1)=N2` [Example 83, 8-(2,5-Difluoro-phenyl)-7-methoxy-4-(3-[1,2,3]triazol-1-yl-phenyl)-1,3-dihydro-benzo[b][1,4]diazepin-2-one], for which the melting point turned out to be 241 °C. Besides, the Ki on rat mGlu2 receptor came out at 12 nM.

`Cc1cc(-c2cccc(C3=Nc4cc(O)c(-c5ccccc5F)cc4NC(=O)C3)c2)on1` [Example 89, 8-(2-Fluoro-phenyl)-7-hydroxy-4-[3-(3-methyl-isoxazol-5-yl)-phenyl]-1,3-dihydro-benzo[b][1,4]diazepin-2-one] returned a melting point of 237 °C. For the same compound, affinity on rat mGlu2 receptor was put at a Ki of 15 nM.

With `N#Cc1cccc(C2=Nc3cc(O)c(-c4cc(F)ccc4F)cc3NC(=O)C2)c1` [Example 90, 3-[7-(2,5-Difluoro-phenyl)-8-hydroxy-4-oxo-4,5-dihydro-3H-benzo[b][1,4]diazepin-2-yl]-benzonitrile], the melting point was above 250 °C. This compound also came in with a Ki at rat mGlu2 receptor of 6 nM.

The compound `O=C1CC(c2cccc(-n3ccnc3)c2)=Nc2cc(O)c(C#Cc3ccc(F)cc3)cc2N1` [Example 91, 8-(4-Fluoro-phenylethynyl)-7-hydroxy-4-(3-imidazol-1-yl-phenyl)-1,3-dihydro-benzo[b][1,4]diazepin-2-one] yielded a melting point of 247 °C. Moreover, on rat mGlu2 receptor, the Ki turned out to be 13 nM.
